Experimental data published in patent US20200048267A1, “OGA INHIBITOR COMPOUNDS” (Janssen Pharmaceutica NV, priority 2017, published 2020).

Target: T1, recombinant human Meningioma Expressed Antigen 5 (MGEA5), also referred to as O-GlcNAcase (OGA) (Homo sapiens, UniProt O60502)
T1 construct: Full length OGA enzyme was purchased at OriGene (cat # TP322411); purchased OriGene TP322411
T1 sequence (O60502 1-916): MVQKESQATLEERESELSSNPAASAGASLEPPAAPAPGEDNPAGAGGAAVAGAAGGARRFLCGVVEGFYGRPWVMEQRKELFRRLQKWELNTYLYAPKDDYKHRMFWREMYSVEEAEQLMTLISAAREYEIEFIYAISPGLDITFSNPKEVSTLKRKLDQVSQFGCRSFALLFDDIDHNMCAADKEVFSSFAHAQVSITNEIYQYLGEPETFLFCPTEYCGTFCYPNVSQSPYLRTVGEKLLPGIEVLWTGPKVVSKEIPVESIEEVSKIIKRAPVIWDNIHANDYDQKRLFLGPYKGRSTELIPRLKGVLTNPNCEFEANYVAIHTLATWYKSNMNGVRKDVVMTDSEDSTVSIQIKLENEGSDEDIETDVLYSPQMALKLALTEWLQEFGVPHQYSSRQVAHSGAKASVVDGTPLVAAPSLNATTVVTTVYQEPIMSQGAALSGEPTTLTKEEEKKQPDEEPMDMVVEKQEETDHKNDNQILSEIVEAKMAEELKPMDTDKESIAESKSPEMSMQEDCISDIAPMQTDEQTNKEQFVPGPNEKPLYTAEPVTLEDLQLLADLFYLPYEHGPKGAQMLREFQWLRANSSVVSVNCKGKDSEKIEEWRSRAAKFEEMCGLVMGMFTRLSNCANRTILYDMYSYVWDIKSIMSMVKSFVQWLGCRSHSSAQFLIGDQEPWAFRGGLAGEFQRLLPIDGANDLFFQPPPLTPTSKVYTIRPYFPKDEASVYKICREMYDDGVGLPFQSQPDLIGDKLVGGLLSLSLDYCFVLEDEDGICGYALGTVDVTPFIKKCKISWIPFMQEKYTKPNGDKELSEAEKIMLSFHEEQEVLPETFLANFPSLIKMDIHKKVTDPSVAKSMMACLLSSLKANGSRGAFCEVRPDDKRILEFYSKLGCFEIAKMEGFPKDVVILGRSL
Experiment: OGA biochemical assay (inhibition of FM-GlcNAc hydrolysis, fluorescence)
Settings: for Emax: read-out: ENZYMATIC Emax (%); for IC50: read-out: ENZYMATIC hOGA, pIC50 (converted)
From the text: The assay is based on the inhibition of the hydrolysis of fluorescein mono-β-D-N-Acetyl-Glucosamine (FM-GlcNAc) (Mariappa et al. 2015, Biochem J 470:255) by the recombinant human Meningioma Expressed Antigen 5 (MGEA5), also referred to as O-GlcNAcase (OGA). The hydrolysis FM-GlcNAc (Marker Gene technologies, cat # M1485) results in the formation of B-D-N-glucosamineacetate and fluorescein. The fluorescence of the latter can be measured at excitation wavelength 485 nm and emission wavelength 538 nm. An increase in enzyme activity results in an increase in fluorescence signal. Full length OGA enzyme was purchased at OriGene (cat # TP322411). The enzyme was stored in 25 mM Tris.HCl, pH 7.3, 100 mM glycine, 10% glycerol at −20° C. Thiamet G and GlcNAcStatin were tested as reference compounds (Yuzwa et al. 2008 Nature Chemical Biology 4:483; Yuzwa et al. 2012 Nature Chemical Biology 8:393). The assay was performed in 200 mM Citrate/phosphate buffer supplemented with 0.005% Tween-20. 35.6 g Na2HPO4 2 H2O (Sigma, # C0759) were dissolved in 1 L water to obtain a 200 mM solution. 19.2 g citric acid (Merck, # 1.06580) was dissolved in 1 L water to obtain a 100 mM solution. pH of the sodium phosphate solution was adjusted with the citric acid solution to 7.2. The buffer to stop the reaction consists of a 500 mM Carbonate buffer, pH 11.0. 734 mg FM-GlcNAc were dissolved in 5.48 mL DMSO to obtain a 250 mM solution and was stored at −20° C. OGA was used at 2 nM concentration and FM-GlcNAc at a 100 uM final concentration. Dilutions were prepared in assay buffer.
50 nl of a compound dissolved in DMSO was dispensed on Black Proxiplate™ 384 Plus Assay plates (Perkin Elmer, #6008269) and 3 μl fl-OGA enzyme mix added subsequently. Plates were pre-incubated for 60 min at room temperature and then 2 μl FM-GlcNAc substrate mix added. […] Plates were briefly centrifuged for 1 min at 1000rpm and incubate at room temperature for 6 h. To stop the reaction 5 μl STOP buffer were added and plates centrifuge again 1 min at 1000 rpm.
Fluorescence was quantified in the Thermo Scientific Fluoroskan Ascent or the PerkinElmer EnVision with excitation wavelength 485 nm and emission wavelength 538 nm.
For analysis a best-fit curve is fitted by a minimum sum of squares method. From this an IC50 value and Hill coefficient was obtained. High control (no inhibitor) and low control (saturating concentrations of standard inhibitor) were used to define the minimum and maximum values.

Row | Emax | IC50 | ENZYMATIC Emax (%) | SMILES
1 | 101% | 10.2 nM |  | CC(=O)Nc1ncc(CN2CCC3(CCN(c4cc(C)nc(C)c4)C3)C2)s1 (single isomer, unassigned) [Product 2]
2 |  | 219 nM | 98.6% | Cc1cc(N2CCC3(CCN(Cc4ccc5nccnc5c4)C3)C2)cc(C)n1 (single isomer, unassigned) [Product 5]
3 | 97.8% | 97.7 nM |  | Cc1cc(N2CCC3(CCN(C(C)c4ccc5nccnc5c4)C3)C2)cc(C)n1 (stereo not shown) [Product 6]
4 | 96.6% | 100 nM |  | Cc1cc(N2CCC3(CCN(C(C)c4ccc5c(c4)OCO5)C3)C2)cc(C)n1 (stereo not shown) [Product 8]
5 | 99.8% | 135 nM |  | Cc1cc(N2CCC3(CCN(C(C)c4ccc5c(c4)OCO5)C3)C2)nc(C)n1 (stereo not shown) [Product 10]
6 | 99.1% | 81.3 nM |  | CC(=O)Nc1ncc(CN2CCC3(CCN(c4cnccn4)C3)C2)s1 (stereo not shown) [Product 11]
7 | 101% | 34.7 nM |  | CC(=O)Nc1ncc(CN2CCC3(CCN(c4cncc(C)n4)C3)C2)s1 (stereo not shown) [Product 12]
8 | 94.2% | 724 nM |  | c1cnc2cc(CN3CCC4(CCN(c5cncc(C6CC6)n5)C4)C3)ccc2n1 (stereo not shown) [Product 14]
9 | 93.4% | 229 nM |  | CC(c1ccc2nccnc2c1)N1CCC2(CCN(c3cncc(C4CC4)n3)C2)C1 (stereo not shown) [Product 15]
10 | 90.6% | 562 nM |  | CC(=O)Nc1ncc(CN2CCC3(CCN(Cc4cc(C)nc(C)c4)C3)C2)s1 (stereo not shown) [Product 17]
11 | 84.4% | 2000 nM |  | CC(=O)Nc1ncc(CN2CCC3(CCN(Cc4ccc(C(F)(F)F)cn4)C3)C2)s1 (stereo not shown) [Product 35]
12 | 98.4% | 66.1 nM |  | CC(=O)Nc1ncc(CN2CCC3(CCN(c4nc(C)cnc4C)C3)C2)s1 (stereo not shown) [Product 40]
13 | 99.8% | 53.7 nM |  | CC(=O)Nc1ncc(CN2CCC3(CCN(c4cncnc4)C3)C2)s1 (stereo not shown) [Product 43]
14 | 102% | 33.9 nM |  | CC(=O)Nc1ncc(CN2CCC3(CCN(c4ccc(C)nc4)C3)C2)s1 (stereo not shown) [Product 44]
15 | 99.2% | 61.7 nM |  | CC(=O)Nc1ncc(CN2CCC3(CCN(c4cnc(C)nc4)C3)C2)s1 (stereo not shown) [Product 45]
16 | 99% | 112 nM |  | CC(=O)Nc1ncc(CN2CCC3(CCN(c4ncc(F)cc4F)C3)C2)s1 (stereo not shown) [Product 46]
17 | 97.1% | 309 nM |  | COc1nc(C)ccc1N1CCC2(CCN(Cc3cnc(NC(C)=O)s3)C2)C1 (stereo not shown) [Product 53]
18 | 101% | 28.2 nM |  | CC(=O)Nc1ncc(CN2CCC3(CCN(c4nc(C)ncc4C)C3)C2)s1 (stereo not shown) [Product 54]
19 | 99% | 45.7 nM |  | CC(=O)Nc1ncc(CN2CCC3(CCN(c4nnc(C)cc4C)C3)C2)s1 (stereo not shown) [Product 55]
20 | 100% | 51.3 nM |  | CC(=O)Nc1ncc(CN2CCC3(CCN(c4cc(F)ncc4C)C3)C2)s1 (stereo not shown) [Product 56]
